According to patent US10202389B2, “Pyrazolopyrimidinyl inhibitors of ubiquitin-activating enzyme” (Millennium Pharmaceuticals, Inc., priority 2012, dated 2019):

These molecules were tested against recombinant human UAE (Homo sapiens (Human), UniProt P22314) (assay: Ubiquitin Activating Enzyme (UAE) HTRF Assay). Conditions: read-out: % inhibition @0.111 μM.
Sequence of recombinant human UAE (P22314 whole entry): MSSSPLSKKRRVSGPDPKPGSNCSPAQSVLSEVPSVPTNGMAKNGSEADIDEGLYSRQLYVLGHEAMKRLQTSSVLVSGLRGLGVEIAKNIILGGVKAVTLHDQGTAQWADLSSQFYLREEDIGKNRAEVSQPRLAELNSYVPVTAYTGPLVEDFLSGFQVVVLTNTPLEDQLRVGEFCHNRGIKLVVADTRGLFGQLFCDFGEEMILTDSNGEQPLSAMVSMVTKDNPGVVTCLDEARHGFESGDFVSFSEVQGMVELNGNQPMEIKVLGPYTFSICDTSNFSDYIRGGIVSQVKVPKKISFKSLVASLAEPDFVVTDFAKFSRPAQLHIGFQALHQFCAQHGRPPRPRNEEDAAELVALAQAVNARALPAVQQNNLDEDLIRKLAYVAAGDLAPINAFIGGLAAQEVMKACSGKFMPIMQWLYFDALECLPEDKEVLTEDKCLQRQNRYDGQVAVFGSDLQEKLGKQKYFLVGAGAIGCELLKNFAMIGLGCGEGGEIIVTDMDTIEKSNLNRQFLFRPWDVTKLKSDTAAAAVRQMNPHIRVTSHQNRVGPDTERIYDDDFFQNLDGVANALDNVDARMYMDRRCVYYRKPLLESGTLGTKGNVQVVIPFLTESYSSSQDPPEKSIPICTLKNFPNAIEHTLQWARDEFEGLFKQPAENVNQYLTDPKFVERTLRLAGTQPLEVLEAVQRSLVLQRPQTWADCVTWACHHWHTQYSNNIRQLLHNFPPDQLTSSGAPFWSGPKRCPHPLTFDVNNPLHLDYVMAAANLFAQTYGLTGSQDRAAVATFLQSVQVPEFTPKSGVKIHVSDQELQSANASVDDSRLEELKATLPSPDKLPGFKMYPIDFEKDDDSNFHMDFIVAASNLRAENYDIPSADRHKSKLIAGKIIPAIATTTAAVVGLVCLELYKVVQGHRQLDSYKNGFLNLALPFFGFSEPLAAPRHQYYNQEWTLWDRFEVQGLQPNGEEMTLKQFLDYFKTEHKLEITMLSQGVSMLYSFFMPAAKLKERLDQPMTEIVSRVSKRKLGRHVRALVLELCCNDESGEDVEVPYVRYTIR
Description: (§1) After incubation for 120 minutes, quantification of the FRET is performed on the Pherostar (BMG).
(§2) For compounds whose values are marked with an asterisk (*), mouse UAE was used. For all other compounds, human UAE was used.

| SMILES | inhibition at 0.111 µM [%] |
| --- | --- |
| CC1(C)COc2ccc(-c3cc4nccc(N[C@@H]5C[C@H](COS(N)(=O)=O)[C@@H](O)[C@H]5O)n4n3)cc21 (relative stereo) [Compound I-026, (rac)-((1R,2R,3S,4R)-4-(2-(3,3-dimethyl-2,3-dihydrobenzofuran-5-yl)pyrazolo[1,5-a]pyrimidin-7-ylamino)-2,3-dihydroxycyclopentyl)methyl rel-sulfamate] | 100 |
| NS(=O)(=O)OC[C@H]1C[C@@H](Nc2ccnc3cc(-c4c[nH]c5ccc(Cl)cc45)nn23)[C@H](O)[C@@H]1O (relative stereo) [Compound I-054, (rac)-[(1R,2R,3S,4R)-4-{[2-(5-chloro-1H-indol-3-yl)pyrazolo[1,5-a]pyrimidin-7-yl]amino}-2,3-dihydroxycyclopentyl]methyl rel-sulfamate] | 100 |
| NS(=O)(=O)OC[C@H]1C[C@@H](Nc2ccnc3cc(-c4cc5ccccc5[nH]4)nn23)[C@H](O)[C@@H]1O (relative stereo) [Compound I-024, (rac)-((1R,2R,3S,4R)-4-(2-(1H-indol-2-yl)pyrazolo[1,5-a]pyrimidin-7-ylamino)-2,3-dihydroxycyclopentyl)methyl rel-sulfamate] | 98 |
| NS(=O)(=O)OC[C@H]1C[C@@H](Nc2cc(Cl)nc3cc(-c4ccc(Br)cc4)nn23)[C@H](O)[C@@H]1O (relative stereo) [Compound I-008, (rac)-((1R,2R,3S,4R)-4-(2-(4-bromophenyl)-5-chloropyrazolo[1,5-a]pyrimidin-7-ylamino)-2,3-dihydroxycyclopentyl)methyl rel-sulfamate] | 28 |
| NS(=O)(=O)OC[C@H]1C[C@@H](Nc2ccnc3cc(-c4cccc(-c5ccccc5)c4)nn23)[C@H](O)[C@@H]1O (relative stereo) [Compound I-003, (rac)((1R,2R,3S,4R)-4-(2-(biphenyl-3-yl)pyrazolo[1,5-a]pyrimidin-7-ylamino)-2,3-dihydroxycyclopentyl)methyl rel-sulfamate] | 100 |
| NS(=O)(=O)OC[C@H]1C[C@@H](Nc2ccnc3cc(-c4ccc5oc6ccccc6c5c4)nn23)[C@H](O)[C@@H]1O (relative stereo) [Compound I-019, (rac)-((1R,2R,3S,4R)-4-(2-(dibenzo[b,d]furan-2-yl)pyrazolo[1,5-a]pyrimidin-7-ylamino)-2,3-dihydroxycyclopentyl)methyl rel-sulfamate] | 100 |
| Cc1sc(-c2ccccc2)nc1-c1cc2nccc(N[C@@H]3C[C@H](COS(N)(=O)=O)[C@@H](O)[C@H]3O)n2n1 (relative stereo) [Compound I-038, (rac)-[(1R,2R,3S,4R)-2,3-dihydroxy-4-{[2-(5-methyl-2-phenyl-1,3-thiazol-4-yl)pyrazolo[1,5-a]pyrimidin-7-yl]amino}cyclopentyl]methyl rel-sulfamate] | 100 |

Next, values leading:

| inhibition at 0.111 µM [%] | SMILES |
| --- | --- |
| 100 | COc1ccc(SC(F)(F)F)cc1-c1cc2nccc(N[C@@H]3C[C@H](COS(N)(=O)=O)[C@@H](O)[C@H]3O)n2n1 [Compound I-120, (s.e.)-((1R,2R,3S,4R)-2,3-dihydroxy-4-(2-(2-methoxy-5-(trifluoromethylthio)-phenyl)pyrazolo[1,5-a]pyrimidin-7-ylamino)cyclopentyl)methyl sulfamate] |
| 100 | COc1ccc(-c2cc3nccc(N[C@@H]4C[C@H](COS(N)(=O)=O)[C@@H](O)[C@H]4O)n3n2)c2ccccc12 [Compound I-106, (s.e.)-((1R,2R,3S,4R)-2,3-dihydroxy-4-(2-(4-methoxynaphthalen-1-yl)pyrazolo[1,5-a]pyrimidin-7-ylamino)cyclopentyl)methyl sulfamate] |
| 100 | NS(=O)(=O)OC[C@H]1C[C@@H](Nc2ccnc3cc(-c4csc5ccc(Cl)cc45)nn23)[C@H](O)[C@@H]1O (relative stereo) [Compound I-071, (rac)-((1R,2R,3S,4R)-4-(2-(5-chlorobenzo[b]thiophen-3-yl)pyrazolo[1,5-a]pyrimidin-7-ylamino)-2,3-dihydroxycyclopentyl)methyl rel-sulfamate] |
| 100 | CCc1ccc2scc(-c3cc4nccc(N[C@@H]5C[C@H](COS(N)(=O)=O)[C@@H](O)[C@H]5O)n4n3)c2c1 (relative stereo) [Compound I-094, (rac)-((1R,2R,3S,4R)-4-(2-(5-ethylbenzo[b]thiophen-3-yl)pyrazolo[1,5-a]pyrimidin-7-ylamino)-2,3-dihydroxycyclopentyl)methyl rel-sulfamate] |
| 100 | NS(=O)(=O)OC[C@H]1C[C@@H](Nc2ccnc3cc(-c4cnc(-c5ccccc5)o4)nn23)[C@H](O)[C@@H]1O (relative stereo) [Compound I-067, (rac)-[(1R,2R,3S,4R)-2,3-dihydroxy-4-{[2-(2-phenyl-1,3-oxazol-5-yl)pyrazolo[1,5-a]pyrimidin-7-yl]amino}cyclopentyl]methyl rel-sulfamate] |
| 100 | NS(=O)(=O)OC[C@H]1C[C@@H](Nc2ccnc3cc(-c4cccc5ccccc45)nn23)[C@H](O)[C@@H]1O [Compound I-098, (s.e.)-((1R,2R,3S,4R)-2,3-dihydroxy-4-{[2-(1-naphthyl)pyrazolo[1,5-a]pyrimidin-7-yl]amino}cyclopentyl)methyl sulfamate] |

What follows are molecules tested against mouse UAE (Mus musculus (Mouse), UniProt Q02053) (assay: Ubiquitin Activating Enzyme (UAE) HTRF Assay). Conditions: read-out: % inhibition @0.111 μM.
Sequence of mouse UAE (Q02053 whole entry): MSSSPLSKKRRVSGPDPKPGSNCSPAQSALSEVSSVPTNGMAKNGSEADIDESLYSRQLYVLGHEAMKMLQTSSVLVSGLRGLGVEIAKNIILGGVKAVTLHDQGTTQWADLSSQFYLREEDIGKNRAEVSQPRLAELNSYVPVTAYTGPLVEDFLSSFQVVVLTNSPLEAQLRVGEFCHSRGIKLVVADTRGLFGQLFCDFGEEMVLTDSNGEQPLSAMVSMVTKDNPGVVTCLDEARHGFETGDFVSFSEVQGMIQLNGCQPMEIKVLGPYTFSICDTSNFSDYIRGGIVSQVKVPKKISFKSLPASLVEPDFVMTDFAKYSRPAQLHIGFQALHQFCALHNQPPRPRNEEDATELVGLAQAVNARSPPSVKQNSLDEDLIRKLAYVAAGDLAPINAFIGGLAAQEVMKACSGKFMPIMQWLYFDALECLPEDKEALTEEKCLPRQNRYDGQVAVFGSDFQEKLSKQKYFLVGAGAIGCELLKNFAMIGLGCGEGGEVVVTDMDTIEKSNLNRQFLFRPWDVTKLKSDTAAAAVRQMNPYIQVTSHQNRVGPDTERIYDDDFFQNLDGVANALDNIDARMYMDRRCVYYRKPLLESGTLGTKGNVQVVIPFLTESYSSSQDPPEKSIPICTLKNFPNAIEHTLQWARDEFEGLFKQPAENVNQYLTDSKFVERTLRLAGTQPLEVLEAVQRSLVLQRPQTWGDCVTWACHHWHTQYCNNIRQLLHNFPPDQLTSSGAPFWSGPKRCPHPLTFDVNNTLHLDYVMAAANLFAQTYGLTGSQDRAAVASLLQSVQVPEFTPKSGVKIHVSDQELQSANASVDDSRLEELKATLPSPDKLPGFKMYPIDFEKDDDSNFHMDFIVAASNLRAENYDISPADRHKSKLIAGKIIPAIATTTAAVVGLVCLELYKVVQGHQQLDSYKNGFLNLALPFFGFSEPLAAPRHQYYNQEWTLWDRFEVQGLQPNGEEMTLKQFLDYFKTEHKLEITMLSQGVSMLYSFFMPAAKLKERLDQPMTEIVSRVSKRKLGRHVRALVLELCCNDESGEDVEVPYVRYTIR
Description: as §1, §2

| inhibition at 0.111 µM [%] | SMILES |
| --- | --- |
| 49 | NS(=O)(=O)OC[C@H]1C[C@@H](Nc2cc(Cl)nc3cc(-c4ccccn4)nn23)[C@H](O)[C@@H]1O (relative stereo) [Compound I-011, (rac)-((1R,2R,3S,4R)-4-(5-chloro-2-(pyridin-2-yl)pyrazolo[1,5-a]pyrimidin-7-ylamino)-2,3-dihydroxycyclopentyl)methyl rel-sulfamate] |
| 100 | NS(=O)(=O)OC[C@H]1C[C@@H](Nc2ccnc3cc(-c4csc5cc(Cl)ccc45)nn23)[C@H](O)[C@@H]1O (relative stereo) [Compound I-091, (rac)-((1R,2R,3S,4R)-4-(2-(6-chlorobenzo[b]thiophen-3-yl)pyrazolo[1,5-a]pyrimidin-7-ylamino)-2,3-dihydroxycyclopentyl)methyl rel-sulfamate] |
| 61 | NS(=O)(=O)OC[C@H]1C[C@@H](Nc2ccnc3cc(-c4ccccn4)nn23)[C@H](O)[C@@H]1O (relative stereo) [Compound I-012, (rac)-[(1R,2R,3S,4R)-2,3-dihydroxy-4-{[2-(pyridin-2-yl)pyrazolo[1,5-a]pyrimidin-7-yl]amino}cyclopentyl]methyl rel-sulfamate] |
| 100 | NS(=O)(=O)OC[C@H]1C[C@@H](Nc2ccnc3cc(-c4cccc(Cl)c4)nn23)[C@H](O)[C@@H]1O (relative stereo) [Compound I-005, (rac)-((1R,2R,3S,4R)-4-((2-(3-Chlorophenyl)pyrazolo[1,5-a]pyrimidin-7-yl)amino)-2,3-dihydroxycyclopentyl)methyl rel-sulfamate] |
| 100 | NS(=O)(=O)OC[C@H]1C[C@@H](Nc2ccnc3cc(-c4cccc5ccccc45)nn23)[C@H](O)[C@@H]1O (relative stereo) [Compound I-002, (rac)-((1R,2R,3S,4R)-2,3-dihydroxy-4-{[2-(1-naphthyl)pyrazolo[1,5-a]pyrimidin-7-yl]amino}cyclopentyl)methyl rel-sulfamate] |
| 72 | NS(=O)(=O)OC[C@H]1C[C@@H](Nc2ccnc3cc(-c4ccccc4)nn23)[C@H](O)[C@@H]1O (relative stereo) [Compound I-001, (rac)-((1R,2R,3S,4R)-2,3-dihydroxy-4-(2-phenylpyrazolo[1,5-a]pyrimidin-7-ylamino)cyclopentyl)methyl rel-sulfamate] |
